From patent US10912294B2, “Composition for use as pesticide, fertilizer, or both, and uses thereof” (priority 2015, dated 2021)

Key:
[1] = tested on: Candida albicans ATCC10231; settings: E. pinto et al. 2006; cited from earlier work
[2] = tested on: Trichophyton mentagrophytes FF7; settings: E. pinto et al. 2006; cited from earlier work
[3] = tested on: Epidermophyton floccosum FF9; settings: E. pinto et al. 2006; cited from earlier work
[4] = tested on: Staphylococcus aureus ATCC6538; settings: R. J. W. Lambert et al. 2001; cited from earlier work
[5] = tested on: Pseudomonas aeruginosa ATCC2730; settings: R. J. W. Lambert et al. 2001; cited from earlier work
[6] = tested on: Staphylococcus epidermidis ATCC12228; settings: A. Nostro et al. 2004; cited from earlier work
Microsporum gypseum FF3 = settings: E. pinto et al. 2006; cited from earlier work
Microsporum canis FF1 = settings: E. pinto et al. 2006; cited from earlier work
Trichophyton rubrum FF5 = settings: E. pinto et al. 2006; cited from earlier work
[7] = tested on: Aspergillus fumigatus ATCC46645; settings: E. pinto et al. 2006; cited from earlier work
[8] = tested on: Candida tropicalis ATCC13803; settings: E. pinto et al. 2006; cited from earlier work
[9] = tested on: Staphylococcus aureus ATCC43300; settings: A. Nostro et al. 2004; cited from earlier work
[10] = tested on: Aspergillus niger ATCC16404; settings: E. pinto et al. 2006; cited from earlier work
[11] = tested on: Staphylococcus aureus (ATCC 6538); assay: Minimum concentration for total bactericidal activity, AOAC method 955.15 (Phenol Coefficient Method); assay type: cell-based; settings: total antimicrobial (bactericidal) activity; incorporated into composition F; contact time 10 minutes
[12] = in vivo; cited from earlier work
[13] = tested on: Treponema phagedaenis-like; settings: D. Döpfer et al. 2013; cited from earlier work
[14] = tested on: E. amylovora 153sm5 (streptomycin-resistant); assay type: cell-based, Erwinia amylovora; settings: streptomycin 100, 250 and 500 ppm; composition 12 at 1, 2.5 and 5%; up to 72 hours at 26° C.
[15] = tested on: E. amylovora 435 (streptomycin-sensitive); assay: Sensitivity test on King B agar media; assay type: cell-based, Erwinia amylovora; settings: streptomycin 100, 250 and 500 ppm; composition 12 at 1, 2.5 and 5%; up to 72 hours at 26° C.
[16] = tested on: E. amylovora 433 (streptomycin-sensitive); assay: Sensitivity test on King B agar media; assay type: cell-based, Erwinia amylovora; settings: streptomycin 100, 250 and 500 ppm; composition 12 at 1, 2.5 and 5%; up to 72 hours at 26° C.
E. coli ATCC 25922 = assay: Sensitivity test on King B agar media; assay type: cell-based; settings: streptomycin 100, 250 and 500 ppm; composition 12 at 1, 2.5 and 5%; up to 72 hours at 26° C.

## Cc1ccc(C(C)C)cc1O [Carvacrol]
[1]
  MIC: 0.016 v/v %
[2]
  MIC: 0.004 v/v %
[3]
  MIC: 0.008 v/v %
[4]
  MIC: 0.0175 v/v %
[5]
  MIC: 0.045 v/v %
[6]
  MIC: 0.03 v/v %
Microsporum gypseum FF3
  MIC: 0.004 v/v %
Microsporum canis FF1
  MIC: 0.004 v/v %
Trichophyton rubrum FF5
  MIC: 0.008 v/v %
[7]
  MIC: 0.016 v/v %
[8]
  MIC: 0.016 v/v %
[9]
  MIC: 0.015 v/v %
[10]
  MIC: 0.016 v/v %
[11]
  Minimal Concentration: 0.07 v/v %

## CC(C)=CCCC(C)=CC=O [Citral]
[11]
  Minimal Concentration: >1% v/v %

## C=CCc1ccc(O)c(OC)c1 [Eugenol]
[11]
  Minimal Concentration: 0.4 v/v %

## COCC(C)O (stereo not shown) [Glycol Ether PM]
[12]
  LD50 Oral-rat: 5 210 mg/kg

## CCCCCCCCCCCCOS(=O)(=O)[O-].[Na+] [Sodium Lauryl Sulfate]
[12]
  LD50 Oral-rat: 1288 mg/kg

## Cc1ccc(C(C)C)c(O)c1 [Thymol]
[1]
  MIC: 0.016 v/v %
[2]
  MIC: 0.016 v/v %
[3]
  MIC: 0.016 v/v %
[4]
  MIC: 0.014 v/v %
[13]
  MIC: 0.0006 v/v %
[5]
  MIC: 0.0385 v/v %
[6]
  MIC: 0.06 v/v %
Microsporum gypseum FF3
  MIC: 0.016 v/v %
Microsporum canis FF1
  MIC: 0.008 v/v %
Trichophyton rubrum FF5
  MIC: 0.016 v/v %
[7]
  MIC: 0.016 v/v %
[8]
  MIC: 0.016 v/v %
[9]
  MIC: 0.06 v/v %
[10]
  MIC: 0.016 v/v %
[11]
  Minimal Concentration: 0.07 v/v %

## [H]/N=C(/N)N[C@H]1[C@H](O)[C@@H](O)[C@H](O[C@@H]2O[C@@H](C)[C@](O)(C=O)[C@H]2O[C@@H]2O[C@@H](CO)[C@H](O)[C@@H](O)[C@@H]2NC)[C@@H](N/C(N)=N\[H])[C@@H]1O [streptomycin]
[14]
  Bacterial growth on King B agar media containing the agent: not inhibited
[15]
  Bacterial growth on King B agar media containing the agent: did not grow
[16]
  Bacterial growth on King B agar media containing the agent: did not grow
E. coli ATCC 25922
  Bacterial growth on King B agar media containing the agent: did not grow
